The values below come from patent publication EP0959065B1, “Pyrethroid compound and composition for controlling pest containing the same” (priority 1998, dated 1999).

The nature of data set [1]: Calculation of safety factor (rat LD50 / housefly LD50). As to conditions: Toxicity to rat (LD50 value) / Insecticidal activity against housefly (LD50 value). The procedure: The safety factor was calculated from the insecticidal activity against housefly and the toxicity to rat according to the following equation. […] Safety factor = Toxicity to rat (LD50 value)] / [Insecticidal activity against housefly (LD50 value)] [formula]

In data set [2] the test system is houseflies (Musca domestica). The data set is described as follows: Mosquito coil fumigation test in glass chamber (knock-down and lethal activity). To be noted: two replications; for Knocking-down activity: 0.3 g coil burnt 30 seconds in 0.34 m^3 chamber, knocked-down counted at ten minutes, 10 adult houseflies; for Lethal activity: insects recovered at 25 minutes, dead and alive counted in 24 hours. Details: key to Knocking-down activity: Excellent: All the insects were knocked down or dead (the total in the two replications); Good: 1 to 2 insects were not knocked down or dead (ditto); Mediocre: 3 to 4 insects were not knocked down or dead (ditto); Bad: 5 or more insects were not knocked down or dead (ditto). It is filed as in vivo. An excerpt:
A base material for mosquito coil (obtained by stirring a 4:3:3 mixture of Tabu powder, Pyrethrum marc and wood powder, adding water thereto, thoroughly kneading the resulting mixture, and molding and drying the kneaded mixture) was uniformly impregnated with a solution of the present compound in acetone so that the material contains a predetermined amount of the compound. The resultant base material was air-dried to obtain a mosquito coil.
Ten adult houseflies (Musca domestica) (male/ female = 5/5) were released in a glass chamber (70cm cube, capacity: 0.34 m^3). 0.3 Gram of a mosquito coil containing the present compound prepared according to the procedure described above was set on a holder in the center of the bottom of the chamber, ignited at one end thereof, and taken out of the chamber after 30 seconds of combustion. The knocked-down houseflies were counted in ten minutes after the setting of the coil. In 25 minutes after the setting of the coil, the test insects were recovered into a cup for recovery and given water and diet. The dead and alive were counted in 24 hours. Two replications of the test were carried out. The same test procedure was repeated for 4-methyl-2,3,5,6-tetrafluorobenzyl (1R)-cis-3-(2,2-dichlorovinyl)-2,2-dimethylcyclopropanecarboxylate (hereinafter referred to as reference compound A) and for a mixture of 50% by weight of 4-methyl-2,3,5,6-tetrafluorobenzyl (1RS)-cis-3-(2,2-dichlorovinyl)-2,2-dimethylcyclopropanecarboxylate and 50% by weight of 4-methyl-2,3,5,6-tetrafluorobenzyl (1RS)-trans-3-(2,2-dichlorovinyl)-2,2-dimethylcyclopropanecarboxylate (this mixture is hereinafter referred to as reference compound B). […] In the table, the knocking-down activity and the lethal activity are indicated according to the following criterion: • Excellent: All the insects were knocked down or dead (the total in the two replications). • Good: 1 to 2 insects were not knocked down or dead (ditto). • Mediocre: 3 to 4 insects were not knocked down or dead (ditto). • Bad: 5 or more insects were not knocked down or dead (ditto).

Data set [3] is described as follows: Toxicity to rat, administration of corn oil dilutions. To be noted: in vivo, male rats, dilution in corn oil, 10 ml/kg, mortality after 7 days. Here is the method:
Each of the present compound and reference compounds A and B was diluted with corn oil to predetermined concentrations. Each of the dilutions thus prepared was administered to male rats in an amount of 10 ml/kg. The rats were given water and diet. After 7 days, the dead and alive were counted for mortality. From the mortality, LD50 (mg/kg) value was determined.

Data set [4] deals with female adult houseflies. Briefly: Insecticidal activity against housefly, topical application of acetone dilutions on the nota. Type of data set: in vivo. To be noted: Musca domestica, 0.5 µl acetone dilution per insect on the nota, mortality after 24 hours. Here is the method:
The present compound was diluted with acetone to concentrations of 100, 50, 25, 12.5 and 6.25 ppm. Each of reference compounds A and B was also diluted with acetone to concentrations of 400, 200, 100, 50 and 25 ppm. Each of the dilutions thus prepared was applied on the nota of female adult houseflies in a volume of 0.5 µl per insect. The insects were given water and diet. After 24 hours, the dead and alive were counted for mortality. From the mortality, LD50 (mg/kg) value was determined.

As to `Cc1c(F)c(F)c(COC(=O)[C@@H]2[C@@H](C=C(Cl)Cl)C2(C)C)c(F)c1F` [Present compound, 4-methyl-2,3,5,6-tetrafluorobenzyl (1R)-trans-3-(2,2-dichlorovinyl)-2,2-dimethylcyclopropanecarboxylate], in data set [1], the Safety factor is 320. In addition, in data set [2] (concentration 0.5 %W/W), the Knocking-down activity result is on record as “Excellent” and the Lethal activity entry was “Good (1 to 2 insects were not knocked down or dead (ditto))”. Besides, the LD50 at 7 days in data set [3] is 300 mg/kg. In data set [4], this molecule yielded an LD50 of 0.93 mg/kg.
Regarding `Cc1c(F)c(F)c(COC(=O)[C@@H]2[C@H](C=C(Cl)Cl)C2(C)C)c(F)c1F` [Reference compound A, 4-methyl-2,3,5,6-tetrafluorobenzyl (1R)-cis-3-(2,2-dichlorovinyl)-2,2-dimethylcyclopropanecarboxylate], the Safety factor in data set [1] was less than 36. Besides, in data set [2] (concentration 0.5 %W/W), the Knocking-down activity result is reported as “Bad (5 or more insects were not knocked down or dead (ditto))” and the Lethal activity result is listed as “Bad (5 or more insects were not knocked down or dead (ditto))”. Further, in data set [3], the LD50 at 7 days was less than 100 mg/kg. Further, the LD50 in data set [4] turned out to be 2.8 mg/kg.
Consider “mixture of 50% by weight of 4-methyl-2,3,5,6-tetrafluorobenzyl (1RS)-cis-3-(2,2-dichlorovinyl)-2,2-dimethylcyclopropanecarboxylate and 50% by weight of 4-methyl-2,3,5,6-tetrafluorobenzyl (1RS)-trans-3-(2,2-dichlorovinyl)-2,2-dimethylcyclopropanecarboxylate [Reference compound B]”, for which the Safety factor in data set [1] is given as less than 35. Also, in data set [2] (concentration 0.5 %W/W), the Knocking-down activity result is “Bad (5 or more insects were not knocked down or dead (ditto))” and the Lethal activity entry is “Bad (5 or more insects were not knocked down or dead (ditto))”. Also, in data set [2] (concentration 1.0 %W/W), the Knocking-down activity entry is recorded as “Mediocre (3 to 4 insects were not knocked down or dead (ditto))” and the Lethal activity entry is “Bad (5 or more insects were not knocked down or dead (ditto))”.

A word on the LD50: it is the dose expected to kill half of the subjects tested.
